Laboratory results as given in patent publication US5162336A, “Tetrahydro-pyrido-indoles as cholecystokinin and gastrin antagonists” (Rhone-Poulenc Rorer Pharmaceuticals Inc., priority 1990, dated 1992).

Target: T1, Gastrin receptor (Cavia porcellus, UniProt H0VZC5)
T1 construct: The fundic mucosa is gently scraped off the submucosa; from tissue; host or cells: gastric glands from fundic mucosa of Hartley guinea pig
T1 sequence (H0VZC5 1-426): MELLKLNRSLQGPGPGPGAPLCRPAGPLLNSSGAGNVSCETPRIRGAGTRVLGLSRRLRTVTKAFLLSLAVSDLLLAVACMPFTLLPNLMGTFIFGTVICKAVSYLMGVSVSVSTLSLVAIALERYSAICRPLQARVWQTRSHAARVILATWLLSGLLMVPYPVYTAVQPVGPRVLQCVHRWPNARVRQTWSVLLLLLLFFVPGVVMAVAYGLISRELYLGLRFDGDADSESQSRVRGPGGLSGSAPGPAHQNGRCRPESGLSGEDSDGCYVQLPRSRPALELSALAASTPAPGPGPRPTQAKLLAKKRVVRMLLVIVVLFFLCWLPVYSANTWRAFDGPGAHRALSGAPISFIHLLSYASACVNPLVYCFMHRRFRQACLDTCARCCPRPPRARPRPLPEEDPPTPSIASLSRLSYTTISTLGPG
Experiment: Gastrin receptor binding assay (displacement of 125I-(Leu-15)-Gastrin from guinea pig fundic glands)
Set-up: species or system guinea pig (Hartley Strain)
Settings: guinea pig fundic mucosa glands, 25° C., 30 min, read-out: In vitro Binding Data IC50 Gastrin
In short: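 Isolated gastric fundic glands from Hartley guinea pig (collagenase digestion, 2x10^5 glands/ml) incubated 30 min at 25 °C under 95% O2/5% CO2 with tracer ^125I-(Leu-15)-gastrin and compound in triplicate. Bound tracer collected on glass fiber filters and gamma-counted; nonspecific defined with 25 μM (Leu-15)-gastrin stock. IC50 = concentration giving 50% loss of specific binding, from log-concentration plot.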

Going from `CC(C)C[C@H](NC(=O)[C@H]1Cc2c([nH]c3ccccc23)CN1C(=O)Nc1ccc2ccccc2c1)C(=O)N[C@@H](CC(=O)O)C(N)=O` [Example 62] to `Cc1cccc(NC(=O)N2Cc3[nH]c4ccccc4c3C[C@@H]2C(=O)N[C@@H](CC(C)C)C(=O)N[C@H](CC(=O)O)C(N)=O)c1` [Example 51, N-[(3R)-2-(3-methylphenylcarbamoyl)-1,2,3,4-tetrahydro-9H-pyrido[3,4-b]indole-3-carboxyl]-L-leucyl-D-aspartic acid amide], the IC50 rises from 1.2 µM to 17 µM (14-fold). The first is the more potent here.

Going from `Cc1cccc(NC(=O)N2Cc3[nH]c4ccccc4c3C[C@@H]2C(=O)NCC(=O)N[C@@H](CC(=O)O)C(N)=O)c1` [Example 56, N-[(3R)-2-(3-methylphenylcarbamoyl)-1,2,3,4-tetrahydro-9H-pyido[3,4-b]indole-3-carboxyl]glycyl-L-aspartic acid amide] to `Cc1cccc(NC(=O)N2Cc3[nH]c4ccccc4c3C[C@@H]2C(=O)N[C@@H](COCc2ccccc2)C(=O)N[C@@H](CC(=O)O)C(N)=O)c1` [Example 64], the IC50 falls from > 30 µM to 5.3 µM.

Compared with `NC(=O)[C@H](CC(=O)O)NC(=O)C1(NC(=O)[C@H]2Cc3c([nH]c4ccccc34)CN2C(=O)Nc2ccc(Cl)c(Cl)c2)CCCC1` [Example 26], `Cc1cc(C)cc(NC(=O)N2Cc3[nH]c4ccccc4c3C[C@@H]2C(=O)N[C@@H](CC(C)C)C(=O)N[C@@H](CC(=O)O)C(N)=O)c1` [Example 60, N-[(3R)-2-(3,5-dimethylphenylcarbamoyl)-1,2,3,4-tetrahydro-9H-pyrido[3,4-b]indole-3-carboxyl]-L-leucyl-L-aspartic acid amide] is 12-fold higher in IC50: 1.3 µM for the first, 15 µM for the second. The first is the more potent here.

First: CC(C)C[C@H](NC(=O)[C@H]1Cc2c([nH]c3ccccc23)CN1C(=O)c1ccccc1)C(=O)N[C@@H](CC(=O)O)C(N)=O [Example 9, N-[(3R)-2-benzoyl-1,2,3,4-tetrahydro-9H-pyrido[3,4-b]indole-3-carboxyl]-L-leucyl-L-aspartic acid amide]
Second: Cc1cccc(NC(=O)N2Cc3[nH]c4ccccc4c3C[C@@H]2C(=O)N[C@@H](CC(C)C)C(=O)N[C@@H](Cc2ccccc2)C(N)=O)c1 [Example 42]
The IC50 of the first is 2.5-fold higher: 25 µM for the first, 10 µM for the second.

Going from `CCOC(=O)c1cccc(NC(=O)[C@H]2Cc3c([nH]c4ccccc34)CN2C(=O)OCc2ccccc2)c1` [Example 16, ethyl 3-N-[(3R)-2-carbobenzoxy-1,2,3,4-tetrahydro-9H-pyrido[3,4-b]indole-3-carboxyl]aminobenzoate] to `O=C(Nc1ccccc1C(=O)N1CCCC1)[C@@H]1Cc2c([nH]c3ccccc23)CN1C(=O)OCc1ccccc1` [Example 19, pyrrolidine-2-N-[(3S)-2-carbobenzoxy-1,2,3,4-tetrahydro-9H-pyrido[3,4-b]indole-3-carboxyl]aminobenzamide], the IC50 falls from > 300 µM to 8 µM. The second is the more potent here.
